Experimental data published in patent US12723063B2, “GIPR-agonist compounds” (Eli Lilly and Company, priority 2019, dated 2026).
*1 amine or outer side, *2 acyl side, *3 side chain or, on linkers, in order; H or OH if unused. Where a SMILES comes first, the peptide text is derived from it. Side-chain parts run from the residue outwards. [ ]: non-standard residue; d: D form. The star is where a group is joined. C20 diacid = O=C(O)CCCCCCCCCCCCCCCCCCC(=O)*; αMePhe(2-F) = C[C@](N)(Cc1ccccc1F)C(=O)O; γGlu = O=C(O)[C@H](CCC(=O)[*:2])N[*:1]; αMeF = C[C@](N)(Cc1ccccc1)C(=O)O; 4Pal = N[C@@H](Cc1ccncc1)C(=O)O; AEEA = NCCOCCOCC(=O)O; Aib = CC(C)(N)C(=O)O

Target: T1, human GIPR (Homo sapiens, UniProt P48546)
T1 construct: expressed in transfected cells; crude membranes
T1 sequence (P48546 22-466): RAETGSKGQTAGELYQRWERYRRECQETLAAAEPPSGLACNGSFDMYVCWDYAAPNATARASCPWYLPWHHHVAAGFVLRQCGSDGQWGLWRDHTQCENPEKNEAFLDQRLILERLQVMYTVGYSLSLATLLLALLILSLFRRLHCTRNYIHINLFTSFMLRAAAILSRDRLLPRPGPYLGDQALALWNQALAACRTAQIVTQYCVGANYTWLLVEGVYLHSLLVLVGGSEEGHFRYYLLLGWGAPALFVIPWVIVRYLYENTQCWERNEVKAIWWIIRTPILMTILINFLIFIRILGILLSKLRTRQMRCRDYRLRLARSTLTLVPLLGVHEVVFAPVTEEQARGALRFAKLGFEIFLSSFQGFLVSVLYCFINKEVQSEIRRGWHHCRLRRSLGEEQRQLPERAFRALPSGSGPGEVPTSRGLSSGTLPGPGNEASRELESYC
Test: [125I]-GIP binding, SPA with WGA beads, 0.1% bacitracin
Conditions: geometric mean, read-out: hGIPR Ki
Procedure, shortened: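 Ki values are geometric means (SEM, n independent days), derived from four-parameter nonlinear regression of IC50. Membranes came from hGIPR-expressing CHO cells.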

Row | SMILES | Ki [pM]
1 | CC[C@H](C)[C@H](NC(=O)[C@H](CO)NC(=O)[C@H](Cc1ccc(O)cc1)NC(=O)[C@H](CC(=O)O)NC(=O)[C@H](CO)NC(=O)[C@@H](NC(=O)[C@](C)(Cc1ccccc1F)NC(=O)[C@@H](NC(=O)CNC(=O)[C@H](CCC(=O)O)NC(=O)C(C)(C)NC(=O)[C@@H](N)Cc1ccc(O)cc1)[C@@H](C)O)[C@@H](C)CC)C(=O)N[C@@H](C)C(=O)N[C@@H](CC(C)C)C(=O)N[C@@H](CC(=O)O)C(=O)N[C@@H](CCCCN)C(=O)N[C@@H](CCCCNC(=O)COCCOCCNC(=O)COCCOCCNC(=O)CC[C@H](NC(=O)CCCCCCCCCCCCCCCCCCC(=O)O)C(=O)O)C(=O)N[C@@H](Cc1c[nH]cn1)C(=O)N[C@@H](CCC(N)=O)C(=O)NC(C)(C)C(=O)N[C@@H](CC(=O)O)C(=O)N[C@@H](Cc1ccccc1)C(=O)N[C@H](C(=O)N[C@@H](CCC(=O)O)C(=O)N[C@@H](Cc1ccncc1)C(=O)N[C@@H](CC(C)C)C(=O)N[C@@H](CC(C)C)C(=O)N[C@@H](CCC(=O)O)C(=O)N[C@H](C(=O)NCC(=O)N1CCC[C@H]1C(=O)N[C@@H](CO)C(=O)N[C@@H](CO)C(=O)NCC(=O)N[C@@H](C)C(=O)N1CCC[C@H]1C(=O)N1CCC[C@H]1C(=O)N1CCC[C@H]1C(=O)N[C@@H](CO)C(N)=O)[C@@H](C)O)C(C)C [Example 38] (H-Y[Aib]EGT[αMePhe(2-F)]ISDYSIALDKK([AEEA-AEEA-γGlu-C20 diacid])HQ[Aib]DFVE[4Pal]LLETGPSSGAPPPS-NH2) | 58.8
2 | CC[C@H](C)[C@H](NC(=O)[C@H](CO)NC(=O)[C@H](Cc1ccc(O)cc1)NC(=O)[C@H](CC(=O)O)NC(=O)[C@H](CO)NC(=O)[C@@H](NC(=O)[C@](C)(Cc1ccccc1F)NC(=O)[C@@H](NC(=O)CNC(=O)[C@H](CCC(=O)O)NC(=O)C(C)(C)NC(=O)[C@@H](N)Cc1ccc(O)cc1)[C@@H](C)O)[C@@H](C)CC)C(=O)N[C@@H](C)C(=O)N[C@@H](CC(C)C)C(=O)N[C@@H](CC(=O)O)C(=O)N[C@@H](CCCCN)C(=O)N[C@@H](CCCCNC(=O)COCCOCCNC(=O)COCCOCCNC(=O)CC[C@H](NC(=O)CCCCCCCCCCCCCCCCCCC(=O)O)C(=O)O)C(=O)N[C@@H](Cc1c[nH]cn1)C(=O)N[C@@H](CCC(N)=O)C(=O)NC(C)(C)C(=O)N[C@@H](CC(=O)O)C(=O)N[C@@H](Cc1ccccc1)C(=O)N[C@H](C(=O)N[C@@H](CCC(=O)O)C(=O)N[C@@H](Cc1ccncc1)C(=O)N[C@@H](CC(C)C)C(=O)N[C@@H](CC(C)C)C(=O)N[C@@H](CCC(=O)O)C(=O)NCC(=O)NCC(=O)N1CCC[C@H]1C(=O)N[C@@H](CO)C(=O)N[C@@H](CO)C(=O)NCC(=O)N[C@@H](C)C(=O)N1CCC[C@H]1C(=O)N1CCC[C@H]1C(=O)N1CCC[C@H]1C(=O)N[C@@H](CO)C(N)=O)C(C)C [Example 39] (H-Y[Aib]EGT[αMePhe(2-F)]ISDYSIALDKK([AEEA-AEEA-γGlu-C20 diacid])HQ[Aib]DFVE[4Pal]LLEGGPSSGAPPPS-NH2) | 44.4
3 | CC[C@H](C)[C@H](NC(=O)[C@H](CO)NC(=O)[C@H](Cc1ccc(O)cc1)NC(=O)[C@H](CC(=O)O)NC(=O)[C@H](CO)NC(=O)[C@@H](NC(=O)[C@](C)(Cc1ccccc1F)NC(=O)[C@@H](NC(=O)CNC(=O)[C@H](CCC(=O)O)NC(=O)C(C)(C)NC(=O)[C@@H](N)Cc1ccc(O)cc1)[C@@H](C)O)[C@@H](C)CC)C(=O)N[C@@H](C)C(=O)N[C@@H](CC(C)C)C(=O)N[C@@H](CC(=O)O)C(=O)N[C@@H](CCCCN)C(=O)N[C@@H](CCCCNC(=O)COCCOCCNC(=O)COCCOCCNC(=O)CC[C@H](NC(=O)CCCCCCCCCCCCCCCCCCC(=O)O)C(=O)O)C(=O)N[C@@H](Cc1c[nH]cn1)C(=O)N[C@@H](CCC(N)=O)C(=O)NC(C)(C)C(=O)N[C@@H](CC(=O)O)C(=O)N[C@@H](Cc1ccccc1)C(=O)N[C@H](C(=O)N[C@@H](CCC(=O)O)C(=O)N[C@@H](Cc1c[nH]c2ccccc12)C(=O)N[C@@H](CC(C)C)C(=O)N[C@@H](CC(C)C)C(=O)N[C@@H](CCC(=O)O)C(=O)N[C@H](C(=O)NCC(=O)N1CCC[C@H]1C(=O)N[C@@H](CO)C(=O)N[C@@H](CO)C(=O)NCC(=O)N[C@@H](C)C(=O)N1CCC[C@H]1C(=O)N1CCC[C@H]1C(=O)N1CCC[C@H]1C(=O)N[C@@H](CO)C(N)=O)[C@@H](C)O)C(C)C [Example 40] (H-Y[Aib]EGT[αMePhe(2-F)]ISDYSIALDKK([AEEA-AEEA-γGlu-C20 diacid])HQ[Aib]DFVEWLLETGPSSGAPPPS-NH2) | 59.4
4 | CC[C@H](C)[C@H](NC(=O)[C@H](CO)NC(=O)[C@H](Cc1ccc(O)cc1)NC(=O)[C@H](CC(=O)O)NC(=O)[C@H](CO)NC(=O)[C@@H](NC(=O)[C@](C)(Cc1ccccc1)NC(=O)[C@@H](NC(=O)CNC(=O)[C@H](CCC(=O)O)NC(=O)C(C)(C)NC(=O)[C@@H](N)Cc1ccc(O)cc1)[C@@H](C)O)[C@@H](C)CC)C(=O)N[C@@H](C)C(=O)N[C@@H](CC(C)C)C(=O)N[C@@H](CC(=O)O)C(=O)N[C@@H](CCCCN)C(=O)N[C@@H](CCCCNC(=O)COCCOCCNC(=O)COCCOCCNC(=O)CC[C@H](NC(=O)CCCCCCCCCCCCCCCCCCC(=O)O)C(=O)O)C(=O)N[C@@H](Cc1c[nH]cn1)C(=O)N[C@@H](CCC(N)=O)C(=O)NC(C)(C)C(=O)N[C@@H](CC(=O)O)C(=O)N[C@@H](Cc1ccccc1)C(=O)N[C@H](C(=O)N[C@@H](CCC(=O)O)C(=O)N[C@@H](Cc1ccncc1)C(=O)N[C@@H](CC(C)C)C(=O)N[C@@H](CC(C)C)C(=O)N[C@@H](CCC(=O)O)C(=O)N[C@H](C(=O)NCC(=O)N1CCC[C@H]1C(=O)N[C@@H](CO)C(=O)N[C@@H](CO)C(=O)NCC(=O)N[C@@H](C)C(=O)N1CCC[C@H]1C(=O)N1CCC[C@H]1C(=O)N1CCC[C@H]1C(=O)N[C@@H](CO)C(N)=O)[C@@H](C)O)C(C)C [Example 41] (H-Y[Aib]EGT[αMeF]ISDYSIALDKK([AEEA-AEEA-γGlu-C20 diacid])HQ[Aib]DFVE[4Pal]LLETGPSSGAPPPS-NH2) | 143
5 | CC[C@H](C)[C@H](NC(=O)[C@H](CO)NC(=O)[C@H](Cc1ccc(O)cc1)NC(=O)[C@H](CC(=O)O)NC(=O)[C@H](CO)NC(=O)[C@@H](NC(=O)[C@](C)(Cc1ccccc1)NC(=O)[C@@H](NC(=O)CNC(=O)[C@H](CCC(=O)O)NC(=O)C(C)(C)NC(=O)[C@@H](N)Cc1ccc(O)cc1)[C@@H](C)O)[C@@H](C)CC)C(=O)N[C@@H](C)C(=O)N[C@@H](CC(C)C)C(=O)N[C@@H](CC(=O)O)C(=O)N[C@@H](CCCCN)C(=O)N[C@@H](CCCCNC(=O)COCCOCCNC(=O)COCCOCCNC(=O)CC[C@H](NC(=O)CCCCCCCCCCCCCCCCCCC(=O)O)C(=O)O)C(=O)N[C@@H](Cc1c[nH]cn1)C(=O)N[C@@H](CCC(N)=O)C(=O)NC(C)(C)C(=O)N[C@@H](CC(=O)O)C(=O)N[C@@H](Cc1ccccc1)C(=O)N[C@H](C(=O)N[C@@H](CCC(=O)O)C(=O)N[C@@H](Cc1ccncc1)C(=O)N[C@@H](CC(C)C)C(=O)N[C@@H](CC(C)C)C(=O)N[C@@H](CCC(=O)O)C(=O)N[C@@H](CCC(N)=O)C(=O)NCC(=O)N1CCC[C@H]1C(=O)N[C@@H](CO)C(=O)N[C@@H](CO)C(=O)NCC(=O)N[C@@H](C)C(=O)N1CCC[C@H]1C(=O)N1CCC[C@H]1C(=O)N1CCC[C@H]1C(=O)N[C@@H](CO)C(N)=O)C(C)C [Example 42] (H-Y[Aib]EGT[αMeF]ISDYSIALDKK([AEEA-AEEA-γGlu-C20 diacid])HQ[Aib]DFVE[4Pal]LLEQGPSSGAPPPS-NH2) | 39.2
6 | CC[C@H](C)[C@H](NC(=O)[C@H](CO)NC(=O)[C@H](Cc1ccc(O)cc1)NC(=O)[C@H](CC(=O)O)NC(=O)[C@H](CO)NC(=O)[C@@H](NC(=O)[C@](C)(Cc1ccccc1)NC(=O)[C@@H](NC(=O)CNC(=O)[C@H](CCC(=O)O)NC(=O)C(C)(C)NC(=O)[C@@H](N)Cc1ccc(O)cc1)[C@@H](C)O)[C@@H](C)CC)C(=O)N[C@@H](C)C(=O)N[C@@H](CC(C)C)C(=O)N[C@@H](CC(=O)O)C(=O)N[C@@H](CCCCN)C(=O)N[C@@H](CCCCNC(=O)COCCOCCNC(=O)COCCOCCNC(=O)CC[C@H](NC(=O)CCCCCCCCCCCCCCCCCCC(=O)O)C(=O)O)C(=O)N[C@@H](Cc1c[nH]cn1)C(=O)N[C@@H](CCC(N)=O)C(=O)NC(C)(C)C(=O)N[C@@H](CC(=O)O)C(=O)N[C@@H](Cc1ccccc1)C(=O)N[C@H](C(=O)N[C@@H](CCC(=O)O)C(=O)N[C@@H](Cc1ccncc1)C(=O)N[C@@H](CC(C)C)C(=O)N[C@@H](CC(C)C)C(=O)N[C@@H](CCC(=O)O)C(=O)N[C@@H](C)C(=O)NCC(=O)N1CCC[C@H]1C(=O)N[C@@H](CO)C(=O)N[C@@H](CO)C(=O)NCC(=O)N[C@@H](C)C(=O)N1CCC[C@H]1C(=O)N1CCC[C@H]1C(=O)N1CCC[C@H]1C(=O)N[C@@H](CO)C(N)=O)C(C)C [Example 43] (H-Y[Aib]EGT[αMeF]ISDYSIALDKK([AEEA-AEEA-γGlu-C20 diacid])HQ[Aib]DFVE[4Pal]LLEAGPSSGAPPPS-NH2) | 36.6
